The values that follow come from ChEMBL document CHEMBL4627364, “Design, synthesis and biological evaluation of novel hybrids of N-aryl pyrrothine-base α-pyrone as bacterial RNA polymerase inhibitors” (Bioorg Med Chem Lett, 2020).

For one assay, the system named is Pseudomonas aeruginosa. Description: Antibacterial activity against Pseudomonas aeruginosa ATCC 27853 assessed as bacterial growth inhibition. It counts as functional.
The test system of assay [1] is Staphylococcus aureus. Description: Antibacterial activity against methicillin-resistant Staphylococcus aureus assessed as bacterial growth inhibition. It counts as functional.
A further assay concerns HepG2. Description: Cytotoxicity against human HepG2 cells assessed as reduction in cell viability by MTT assay. It counts as cell-based. Background: Tetrazolium assays rely on reduction of a dye to a coloured formazan, in cell work by metabolically active cells.
Assay [2] deals with Staphylococcus aureus. Description: Antibacterial activity against Staphylococcus aureus ATCC 29213 assessed as bacterial growth inhibition. The format is functional.
The test system of assay [3] is Escherichia coli. The assay is described as follows: Antibacterial activity against Escherichia coli ATCC 25922 assessed as bacterial growth inhibition. The format is functional.
The subject of assay [4] is Staphylococcus aureus. Description: Antibacterial activity against rifampicin-resistant Staphylococcus aureus assessed as bacterial growth inhibition. The format is functional.
Another assay deals with Enterococcus faecalis. Description: Antibacterial activity against Enterococcus faecalis ATCC 29212 assessed as bacterial growth inhibition. It counts as functional.
The next assay has as its system Bacillus subtilis. Description: Antibacterial activity against Bacillus subtilis ATCC 6633 assessed as bacterial growth inhibition. The format is functional.
The test system of a further assay is Candida albicans. The assay is described as follows: Antifungal activity against Candida albicans ATCC 10231 assessed as fungal growth inhibition. The format is functional.
Assay [5] relates to Staphylococcus aureus. Description: Antibacterial activity against vancomycin-resistant Staphylococcus aureus assessed as bacterial growth inhibition. The format is functional.
For assay [6], the system named is Escherichia coli. The assay is described as follows: Inhibition of Escherichia coli RNA polymerase at 200 uM relative to control.
Assay [7] is described as follows: Inhibition of recombinant Escherichia coli RNA polymerase.
A short description of assay [8]: Inhibition of Escherichia coli RNA polymerase.

Converted amounts (≈) assume the structure as drawn. Some results are limits rather than exact numbers.

Consider `COc1ccc(-n2c3cssc-3c(NC(=O)N(C)CCOC(=O)CCCC(=O)c3c(O)cc(C)oc3=O)c2=O)c(OC)c1`, for which the MIC (usually the lowest concentration found to suppress growth) is above 128 µg/mL with Pseudomonas aeruginosa; 1 to 2 µg/mL (≈ 1.58 to 3.17 µM) in the assay on Staphylococcus aureus [1]; 2 µg/mL (≈ 3.17 µM) in the assay with Staphylococcus aureus [2]; above 128 µg/mL in the assay with Escherichia coli [3]; 2 to 4 µg/mL (≈ 3.17 to 6.33 µM) in the assay with Staphylococcus aureus [4]; 2 µg/mL (≈ 3.17 µM) in the assay with Enterococcus faecalis. Also, the MIC in the assay with Bacillus subtilis was 32 µg/mL (≈ 50.7 µM); in the assay on Candida albicans it was above 128 µg/mL; with Staphylococcus aureus [5] it was 2 to 4 µg/mL (≈ 3.17 to 6.33 µM). In addition, in the assay on HepG2, the IC50 (usually the point on the concentration scale where inhibition reaches its midpoint) amounted to 5.32 µM. Further, the inhibition (in general, the change of the read-out against control, counted positive when it falls) in the assay with Escherichia coli [6] was 23.8%.

In the case of `CCC/C(C)=C/C=C(\C)C(=O)c1c(O)cc([C@H](C)CC/C=C/NC(=O)OC)oc1=O` [MYXOPORIN A], in [7], the IC50 came out at 24 µM.

In the case of `COc1ccc(-n2c3cssc-3c(NC(=O)NCCOC(=O)CCCC(=O)c3c(O)cc(C)oc3=O)c2=O)c(OC)c1`, the MIC in the assay with Pseudomonas aeruginosa is above 128 µg/mL; in the assay with Staphylococcus aureus [2] it was 32 µg/mL (≈ 51.8 µM); with Escherichia coli [3], above 64 µg/mL; in the assay with Enterococcus faecalis it was 4 µg/mL (≈ 6.48 µM); with Bacillus subtilis, 32 µg/mL (≈ 51.8 µM); in the assay with Candida albicans, above 128 µg/mL. The compound also yielded an inhibition with Escherichia coli [6] of 25.3%.

As for `COc1ccc(-n2c3cssc-3c(NC(=O)OCCOC(=O)CCCCC(=O)c3c(O)cc(C)oc3=O)c2=O)c(OC)c1`, the MIC with Pseudomonas aeruginosa was above 128 µg/mL; with Staphylococcus aureus [1], 1 to 2 µg/mL (≈ 1.58 to 3.16 µM); in the assay on Staphylococcus aureus [2], 2 µg/mL (≈ 3.16 µM); with Escherichia coli [3], above 128 µg/mL; with Staphylococcus aureus [4] it was 2 to 4 µg/mL (≈ 3.16 to 6.32 µM); in the assay on Enterococcus faecalis, 16 µg/mL (≈ 25.3 µM). The MIC was 32 µg/mL (≈ 50.6 µM) in the assay with Bacillus subtilis, above 128 µg/mL in the assay on Candida albicans and 2 to 4 µg/mL (≈ 3.16 to 6.32 µM) in the assay on Staphylococcus aureus [5]. The IC50 in the assay on HepG2 came to 9.43 µM; in assay [8], 65.9 µM.

Turning to `COc1ccc(-n2c3cssc-3c(NC(=O)OCCOC(=O)CCCCCCC(=O)c3c(O)cc(C)oc3=O)c2=O)c(OC)c1`, the MIC was above 128 µg/mL in the assay with Pseudomonas aeruginosa; 1 to 2 µg/mL (≈ 1.51 to 3.03 µM) in the assay on Staphylococcus aureus [1]; 1 µg/mL (≈ 1.51 µM) with Staphylococcus aureus [2]; above 128 µg/mL with Escherichia coli [3]; 1 to 2 µg/mL (≈ 1.51 to 3.03 µM) with Staphylococcus aureus [4]; 2 µg/mL (≈ 3.03 µM) in the assay with Enterococcus faecalis. Further, the minimal inhibitory concentration (MIC) with Bacillus subtilis was 32 µg/mL (≈ 48.4 µM); in the assay on Candida albicans it was above 128 µg/mL; with Staphylococcus aureus [5] it was 2 to 4 µg/mL (≈ 3.03 to 6.05 µM). Besides, the IC50 in the assay with HepG2 is 7.04 µM; in assay [8], 16.1 µM.

`COc1ccc(-n2c3cssc-3c(NC(=O)OCCOC(=O)CCCC(=O)c3c(O)cc(C)oc3=O)c2=O)c(OC)c1`: the MIC with Pseudomonas aeruginosa was above 128 µg/mL; with Staphylococcus aureus [1], 1 to 2 µg/mL (≈ 1.62 to 3.23 µM); with Staphylococcus aureus [2] it was 1 µg/mL (≈ 1.62 µM); in the assay with Escherichia coli [3] it was above 128 µg/mL; in the assay with Staphylococcus aureus [4], 1 to 2 µg/mL (≈ 1.62 to 3.23 µM); in the assay on Enterococcus faecalis it was 4 µg/mL (≈ 6.47 µM). The MIC was 32 µg/mL (≈ 51.7 µM) with Bacillus subtilis, above 128 µg/mL with Candida albicans and 4 to 8 µg/mL (≈ 6.47 to 12.9 µM) in the assay on Staphylococcus aureus [5]. Besides, the IC50 with HepG2 is 1.97 µM. The compound further had an inhibition with Escherichia coli [6] of 41.3%.

For `COc1ccc(-n2c3cssc-3c(NC(=O)NCCOC(=O)CCCCC(=O)c3c(O)cc(C)oc3=O)c2=O)c(OC)c1`, the MIC in the assay with Pseudomonas aeruginosa is above 128 µg/mL; in the assay with Staphylococcus aureus [2], 4 µg/mL (≈ 6.33 µM); in the assay on Escherichia coli [3] it was above 64 µg/mL; in the assay with Enterococcus faecalis, 16 µg/mL (≈ 25.3 µM); with Bacillus subtilis it was 128 µg/mL (≈ 203 µM); in the assay with Candida albicans, above 128 µg/mL. This compound yielded an inhibition in the assay with Escherichia coli [6] of 36.5%.

On to `COc1ccc(-n2c3cssc-3c(NC(=O)N(C)CCOC(=O)CCCCCCC(=O)c3c(O)cc(C)oc3=O)c2=O)c(OC)c1`, for which the MIC in the assay with Pseudomonas aeruginosa was above 128 µg/mL; with Staphylococcus aureus [2], 16 µg/mL (≈ 23.7 µM); with Escherichia coli [3], above 64 µg/mL; in the assay with Enterococcus faecalis, 8 µg/mL (≈ 11.9 µM); in the assay with Bacillus subtilis, 32 µg/mL (≈ 47.5 µM); in the assay with Candida albicans, above 128 µg/mL. The compound further registered an inhibition in the assay with Escherichia coli [6] of 32.1%.

Turning to `COc1ccc(-n2c3cssc-3c(NC(=O)N(C)CCOC(=O)CCCCC(=O)c3c(O)cc(C)oc3=O)c2=O)c(OC)c1`, the MIC in the assay on Pseudomonas aeruginosa is above 128 µg/mL; in the assay with Staphylococcus aureus [1] it was 1 to 2 µg/mL (≈ 1.55 to 3.1 µM); with Staphylococcus aureus [2], 2 µg/mL (≈ 3.1 µM); with Escherichia coli [3], above 128 µg/mL; in the assay on Staphylococcus aureus [4] it was 1 to 2 µg/mL (≈ 1.55 to 3.1 µM); in the assay on Enterococcus faecalis it was 16 µg/mL (≈ 24.8 µM). In addition, the MIC was 32 µg/mL (≈ 49.6 µM) with Bacillus subtilis, above 128 µg/mL in the assay on Candida albicans and 4 to 8 µg/mL (≈ 6.19 to 12.4 µM) in the assay on Staphylococcus aureus [5]. The IC50 with HepG2 stood at 2.76 µM; in assay [8], 45.9 µM.

`COc1ccc(-n2c3cssc-3c(NC(=O)CCCCC(=O)c3c(O)cc(C)oc3=O)c2=O)c(OC)c1`: the MIC is above 128 µg/mL with Pseudomonas aeruginosa; 2 µg/mL (≈ 3.67 µM) with Staphylococcus aureus [2]; above 128 µg/mL in the assay with Escherichia coli [3]; 64 µg/mL (≈ 118 µM) in the assay on Enterococcus faecalis; 16 µg/mL (≈ 29.4 µM) in the assay on Bacillus subtilis; above 128 µg/mL in the assay on Candida albicans. This compound gave an inhibition in the assay on Escherichia coli [6] of 42.4%.

Regarding `O=C(O)c1cn(C2CC2)c2cc(N3CCNCC3)c(F)cc2c1=O` [CIPROFLOXACIN], the MIC in the assay with Staphylococcus aureus [2] is 0.078 µg/mL (≈ 0.235 µM); in the assay on Escherichia coli [3], 0.00625 µg/mL (≈ 0.0189 µM); in the assay with Enterococcus faecalis, 0.5 µg/mL (≈ 1.51 µM); in the assay on Bacillus subtilis, 0.125 µg/mL (≈ 0.377 µM).

Regarding `COc1ccc(-n2c3cssc-3c(NC(=O)NCCOC(=O)CCCCCCC(=O)c3c(O)cc(C)oc3=O)c2=O)c(OC)c1`, the minimal inhibitory concentration (MIC) was above 128 µg/mL in the assay on Pseudomonas aeruginosa; 128 µg/mL (≈ 194 µM) in the assay with Staphylococcus aureus [2]; above 128 µg/mL with Escherichia coli [3]; 32 µg/mL (≈ 48.5 µM) in the assay on Enterococcus faecalis; 128 µg/mL (≈ 194 µM) with Bacillus subtilis; above 128 µg/mL in the assay on Candida albicans. In addition, in assay [8], the IC50 stood at 56.3 µM.

Take `CN[C@H](CC(C)C)C(=O)N[C@H]1C(=O)N[C@@H](CC(N)=O)C(=O)N[C@H]2C(=O)N[C@H]3C(=O)N[C@H](C(=O)N[C@H](C(=O)O)c4cc(O)cc(O)c4-c4cc3ccc4O)[C@H](O)c3ccc(c(Cl)c3)Oc3cc2cc(c3O[C@@H]2O[C@H](CO)[C@@H](O)[C@H](O)[C@H]2O[C@H]2C[C@](C)(N)[C@H](O)[C@H](C)O2)Oc2ccc(cc2Cl)[C@H]1O` [VANCOMYCIN]: the MIC is 1 to 2 µg/mL (≈ 0.69 to 1.38 µM) in the assay with Staphylococcus aureus [1]; above 128 µg/mL in the assay with Escherichia coli [3]; 1 to 2 µg/mL (≈ 0.69 to 1.38 µM) in the assay on Staphylococcus aureus [4]; 1 µg/mL (≈ 0.69 µM) in the assay with Bacillus subtilis; above 64 µg/mL with Staphylococcus aureus [5].

In the case of `COc1ccc(-n2c3cssc-3c(NC(=O)CCCC(=O)c3c(O)cc(C)oc3=O)c2=O)c(OC)c1`, the MIC in the assay on Pseudomonas aeruginosa is above 128 µg/mL; in the assay on Staphylococcus aureus [1], 1 to 2 µg/mL (≈ 1.88 to 3.77 µM); with Staphylococcus aureus [2], 2 µg/mL (≈ 3.77 µM); in the assay on Escherichia coli [3], above 64 µg/mL; with Staphylococcus aureus [4], 2 to 4 µg/mL (≈ 3.77 to 7.54 µM); with Enterococcus faecalis, 16 µg/mL (≈ 30.2 µM). Further, the MIC is 32 µg/mL (≈ 60.3 µM) in the assay on Bacillus subtilis, above 128 µg/mL in the assay on Candida albicans and 4 to 8 µg/mL (≈ 7.54 to 15.1 µM) in the assay with Staphylococcus aureus [5]. The IC50 in the assay on HepG2 was 29 µM. The compound further displayed an inhibition with Escherichia coli [6] of 35.4%.

With `COc1ccc(-n2c3cssc-3c(NC(=O)CCCCCCC(=O)c3c(O)cc(C)oc3=O)c2=O)c(OC)c1`, the MIC in the assay with Pseudomonas aeruginosa was above 128 µg/mL; in the assay on Staphylococcus aureus [2], 64 µg/mL (≈ 112 µM); in the assay with Escherichia coli [3], above 128 µg/mL; in the assay with Enterococcus faecalis, above 128 µg/mL; in the assay with Bacillus subtilis it was 32 µg/mL (≈ 55.9 µM); in the assay with Candida albicans, above 128 µg/mL. The same compound showed an inhibition in the assay on Escherichia coli [6] of 43.4%.

Take `CO[C@H]1/C=C/O[C@@]2(C)Oc3c(C)c(O)c4c(O)c(c(/C=N/N5CCN(C)CC5)c(O)c4c3C2=O)NC(=O)/C(C)=C\C=C\[C@H](C)[C@H](O)[C@@H](C)[C@@H](O)[C@@H](C)[C@H](OC(C)=O)[C@@H]1C` [RIFAMPIN]: the MIC in the assay with Pseudomonas aeruginosa was above 64 µg/mL; in the assay on Staphylococcus aureus [1], 0.125 to 0.25 µg/mL (≈ 0.152 to 0.304 µM); in the assay with Staphylococcus aureus [2], 0.5 µg/mL (≈ 0.608 µM); with Escherichia coli [3], 8 µg/mL (≈ 9.72 µM); in the assay on Staphylococcus aureus [4], above 64 µg/mL; with Enterococcus faecalis it was 0.5 µg/mL (≈ 0.608 µM). In addition, the MIC is 0.125 µg/mL (≈ 0.152 µM) in the assay with Bacillus subtilis, above 64 µg/mL with Candida albicans and 0.0625 to 0.125 µg/mL (≈ 0.0759 to 0.152 µM) in the assay with Staphylococcus aureus [5]. The IC50 in the assay on HepG2 came out at 145 µM; in assay [8] it was 0.14 µM.
